Assay results published in ChEMBL document CHEMBL3045633, “Synthesis and antimicrobial activity of newer indole semicarbazones” (2012).
≈ marks a conversion by molar mass, not a printed value.

Assays:
Assay type in all cases: functional
Klebsiella pneumoniae = assay: Antibacterial activity against Klebsiella pneumoniae after 24 hr by broth dilution method
Pseudomonas aeruginosa = assay: Antibacterial activity against Pseudomonas aeruginosa after 24 hr by broth dilution method
Escherichia coli = assay: Antibacterial activity against Escherichia coli after 24 hr by broth dilution method
Staphylococcus aureus = assay: Antibacterial activity against Staphylococcus aureus after 24 hr by broth dilution method
[1] = system: Staphylococcus epidermidis; assay: Antibacterial activity against Staphylococcus epidermidis after 24 hr by broth dilution method
Diutina rugosa [2] = assay: Antifungal activity against Candida rugosa at 150 ug after 48 hr by agar cup bioassay; details: read-out: DIZ
Diutina rugosa [3] = assay: Antifungal activity against Candida rugosa at 100 ug after 48 hr by agar cup bioassay; details: read-out: DIZ
Candida albicans [4] = assay: Antifungal activity against Candida albicans at 150 ug after 48 hr by agar cup bioassay; details: read-out: DIZ
Candida albicans [5] = assay: Antifungal activity against Candida albicans at 100 ug after 48 hr by agar cup bioassay; details: read-out: DIZ
Bacillus subtilis = assay: Antibacterial activity against Bacillus subtilis after 24 hr by broth dilution method
Diutina rugosa [6] = assay: Antifungal activity against Candida rugosa at 50 ug after 48 hr by agar cup bioassay; details: read-out: DIZ
Candida albicans [7] = assay: Antifungal activity against Candida albicans at 50 ug after 48 hr by agar cup bioassay; details: read-out: DIZ

Row | MIC (Klebsiella pneumoniae) [µg/mL] | MIC (Pseudomonas aeruginosa) [µg/mL] | MIC (Escherichia coli) [µg/mL] | MIC (Staphylococcus aureus) [µg/mL] | MIC [1] [µg/mL] | MIC (Bacillus subtilis) [µg/mL] | Structure (SMILES) | zone of inhibition at 150 µg/disc (Diutina rugosa [2]) [mm] | zone of inhibition at 100 µg/disc (Diutina rugosa [3]) [mm] | zone of inhibition at 150 µg/disc (Candida albicans [4]) [mm] | zone of inhibition at 100 µg/disc (Candida albicans [5]) [mm] | zone of inhibition at 50 µg/disc (Diutina rugosa [6]) [mm] | zone of inhibition at 50 µg/disc (Candida albicans [7]) [mm]
1 | 115 (≈ 290 µM) | 100 (≈ 252 µM) | 100 (≈ 252 µM) | 130 (≈ 328 µM) | 110 (≈ 277 µM) | 125 (≈ 315 µM) | NC(=O)N/N=C/c1c(-c2ccccc2)n(CC(=O)c2ccccc2)c2ccccc12 | 8 | 0 | 8 | 0 |  | 
2 | 120 (≈ 278 µM) | 115 (≈ 267 µM) | 125 (≈ 290 µM) | 130 (≈ 302 µM) | 140 (≈ 325 µM) | 110 (≈ 255 µM) | NC(=O)N/N=C/c1c(-c2ccccc2)n(CC(=O)c2ccc(Cl)cc2)c2ccccc12 | 12 | 5 | 10 | 4 |  | 
3 | 130 (≈ 273 µM) | 135 (≈ 284 µM) | 120 (≈ 252 µM) | 125 (≈ 263 µM) | 130 (≈ 273 µM) | 105 (≈ 221 µM) | NC(=O)N/N=C/c1c(-c2ccccc2)n(CC(=O)c2ccc(Br)cc2)c2ccccc12 |  |  |  |  |  | 
4 | > 150 | > 150 | 130 (≈ 317 µM) | 130 (≈ 317 µM) | 125 (≈ 305 µM) | > 150 | Cc1ccc(C(=O)Cn2c(-c3ccccc3)c(/C=N/NC(N)=O)c3ccccc32)cc1 | 10 | 7 | 10 | 7 |  | 
5 | 120 (≈ 281 µM) | 145 (≈ 340 µM) | 140 (≈ 328 µM) | 110 (≈ 258 µM) | 130 (≈ 305 µM) | 140 (≈ 328 µM) | COc1ccc(C(=O)Cn2c(-c3ccccc3)c(/C=N/NC(N)=O)c3ccccc32)cc1 | 10 | 8 | 10 | 8 |  | 
6 | 37.5 (≈ 84.9 µM) | 75 (≈ 170 µM) | 130 (≈ 294 µM) | 125 (≈ 283 µM) | 110 (≈ 249 µM) | 120 (≈ 272 µM) | NC(=O)N/N=C/c1c(-c2ccccc2)n(CC(=O)c2ccc([N+](=O)[O-])cc2)c2ccccc12 | 14 | 10 | 14 | 9 |  | 
7 | 135 (≈ 286 µM) | 105 (≈ 222 µM) | 120 (≈ 254 µM) | 110 (≈ 233 µM) | 130 (≈ 275 µM) | > 150 | NC(=O)N/N=C/c1c(-c2ccccc2)n(CC(=O)c2ccc(-c3ccccc3)cc2)c2ccccc12 |  |  |  |  |  | 
8 | > 150 | 125 (≈ 393 µM) | 120 (≈ 377 µM) | 125 (≈ 393 µM) | 115 (≈ 361 µM) | 140 (≈ 440 µM) | C=CCn1c(-c2ccccc2)c(/C=N/NC(N)=O)c2ccccc21 | 12 | 7 | 15 | 10 |  | 
9 | 110 (≈ 329 µM) | 120 (≈ 359 µM) | 140 (≈ 419 µM) | 125 (≈ 374 µM) | 135 (≈ 404 µM) | > 150 | CCCCn1c(-c2ccccc2)c(/C=N/NC(N)=O)c2ccccc21 | 10 | 9 | 12 | 9 |  | 
10 | 110 (≈ 348 µM) | > 150 | > 150 | > 150 | > 150 | 125 (≈ 395 µM) | C#CCn1c(-c2ccccc2)c(/C=N/NC(N)=O)c2ccccc21 | 15 | 10 | 13 | 8 |  | 
11 |  |  |  |  |  |  | C[C@@H]1[C@H](O)[C@@H](C)/C=C/C=C/C=C/C=C/C=C/C=C/C=C/[C@H](O[C@@H]2O[C@H](C)[C@@H](O)[C@H](N)[C@@H]2O)C[C@@H]2O[C@](O)(C[C@@H](O)C[C@@H](O)[C@H](O)CC[C@@H](O)C[C@@H](O)CC(=O)O[C@H]1C)C[C@H](O)[C@H]2C(=O)O [AMPHOTERICIN B] |  |  |  |  | 21 | 23.5

Row | Structure (SMILES) | MIC (Klebsiella pneumoniae) [µg/mL] | MIC (Pseudomonas aeruginosa) [µg/mL] | MIC (Escherichia coli) [µg/mL] | MIC (Staphylococcus aureus) [µg/mL] | MIC [1] [µg/mL] | MIC (Bacillus subtilis) [µg/mL] | zone of inhibition at 150 µg/disc (Diutina rugosa [2]) [mm] | zone of inhibition at 100 µg/disc (Diutina rugosa [3]) [mm] | zone of inhibition at 150 µg/disc (Candida albicans [4]) [mm] | zone of inhibition at 100 µg/disc (Candida albicans [5]) [mm] | zone of inhibition at 50 µg/disc (Diutina rugosa [6]) [mm] | zone of inhibition at 50 µg/disc (Candida albicans [7]) [mm]
12 | O=C(O)c1cn(C2CC2)c2cc(N3CCNCC3)c(F)cc2c1=O [CIPROFLOXACIN] | 25 (≈ 75.4 µM) |  | 20 (≈ 60.4 µM) |  | 22 (≈ 66.4 µM) | 24 (≈ 72.4 µM) |  |  |  |  |  | 
